Experimental data reported in ChEMBL document CHEMBL2034965, “The synthesis of 2,5-bis(4-amidinophenyl)thiophene derivatives providing submicromolar-range inhibition of the botulinum neurotoxin serotype A metalloprotease” (Eur J Med Chem, 2012).
pKi: −log10 of the molar value.

Columns and labels:
[1] = target: Botulinum neurotoxin type A (Clostridium botulinum, UniProt P0DPI0); test: Competitive inhibition of clostridium botulinum Botulinum neurotoxin type A light chain by RP-HPLC analysis
[2] = target: Botulinum neurotoxin type A (Clostridium botulinum) (UniProt P0DPI0); test: Ratio of Ki for NSC 300510 to compound Ki for clostridium botulinum Botulinum neurotoxin type A light chain by RP-HPLC analysis
Sequence of Botulinum neurotoxin type A (Clostridium botulinum) (P0DPI0 2-448 limits assumed): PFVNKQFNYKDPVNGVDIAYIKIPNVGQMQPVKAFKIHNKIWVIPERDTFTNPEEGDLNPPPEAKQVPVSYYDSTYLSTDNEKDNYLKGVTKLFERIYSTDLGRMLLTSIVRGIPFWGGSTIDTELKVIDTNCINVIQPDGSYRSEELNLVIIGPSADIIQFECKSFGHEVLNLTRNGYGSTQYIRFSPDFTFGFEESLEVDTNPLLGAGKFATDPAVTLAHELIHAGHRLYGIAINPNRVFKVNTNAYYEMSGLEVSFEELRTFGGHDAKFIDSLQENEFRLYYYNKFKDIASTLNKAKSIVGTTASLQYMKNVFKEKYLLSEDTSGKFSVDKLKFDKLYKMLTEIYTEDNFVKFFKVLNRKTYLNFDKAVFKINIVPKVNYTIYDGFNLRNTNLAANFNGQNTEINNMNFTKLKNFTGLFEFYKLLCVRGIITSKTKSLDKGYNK

[3] = target: Botulinum neurotoxin type A (Clostridium botulinum) (UniProt P0DPI0); test: Inhibition of clostridium botulinum Botulinum neurotoxin type A light chain at 20 uM by RP-HPLC analysis

Sequence of Botulinum neurotoxin type A (P0DPI0 2-448 limits assumed): as above

SMILES: Clc1ccc2c(NCCNCc3ccc(-c4ccc(-c5ccc(CNCCNc6ccnc7cc(Cl)ccc67)cc5)s4)cc3)ccnc2c1
- pKi [1]: 6.05

SMILES: Clc1ccc2c(NCCCNCc3ccc(-c4ccc(-c5ccc(CNCCCNc6ccnc7cc(Cl)ccc67)cc5)s4)cc3)ccnc2c1
- Ratio Ki [2]: 36

SMILES: Clc1ccc2c(NCCCCNCc3ccc(-c4ccc(-c5ccc(CNCCCCNc6ccnc7cc(Cl)ccc67)cc5)s4)cc3)ccnc2c1
- pKi [1]: 6.27

SMILES: O=C(NCCCNc1ccnc2cc(Cl)ccc12)c1cc(NC(=O)c2ccc(C(=O)Nc3cc(C(=O)NCCCNc4ccnc5cc(Cl)ccc45)cc(C4=NCCN4)c3)cc2)cc(C2=NCCN2)c1
- Ratio Ki [2]: 15

SMILES: N=C(N)c1ccc(-c2ccc(-c3ccc(C(=N)N)cc3)s2)cc1
- inhibition [3]: 78%
- pKi [1]: 4.96

SMILES: Clc1ccc2c(NCCCCCNCc3ccc(-c4ccc(-c5ccc(CNCCCCCNc6ccnc7cc(Cl)ccc67)cc5)s4)cc3)ccnc2c1
- pKi [1]: 6.05
